Measured values from US20260285855A1, “HETEROARYL DERIVATIVES AS DDRS INHIBITORS” (CHIESI FARMACEUTICI S.P.A., priority 2023, published 2026).

Key:
DDR1 = target: T1, DDR1 (Homo sapiens, UniProt Q08345); test: LanthaScreen Europium Kinase Binding assay, DDR1; conditions: 5 nM DDR1, 20 nM Kinase Tracer 178, 1 h at rt; Ki from IC50 by Cheng-Prusoff; read-out: Ki DDR1
T1 construct: purchased Carna Biosciences
Procedure: (§1) DDR1 and DDR2 binding assays were performed using Life Technologies LanthaScreen™ Europium Kinase Binding assay. […] IC50 values were determined in GraphPad Prism 7.0 software, using 4 parameter model: log (inhibitor) vs. response. IC50 values were converted in Ki using the Cheng-Prusoff equation (Ki-IC50/(1+ [Tracer]/Kd).

DDR2 = target: T2, DDR2 (Homo sapiens, UniProt Q16832); test: LanthaScreen Europium Kinase Binding assay, DDR2; conditions: 5 nM DDR2, 10 nM Kinase Tracer 178, 1 h at rt; Ki from IC50 by Cheng-Prusoff; read-out: Ki DDR2
T2 construct: purchased Life Technologies
T2 sequence (Q16832 22-855): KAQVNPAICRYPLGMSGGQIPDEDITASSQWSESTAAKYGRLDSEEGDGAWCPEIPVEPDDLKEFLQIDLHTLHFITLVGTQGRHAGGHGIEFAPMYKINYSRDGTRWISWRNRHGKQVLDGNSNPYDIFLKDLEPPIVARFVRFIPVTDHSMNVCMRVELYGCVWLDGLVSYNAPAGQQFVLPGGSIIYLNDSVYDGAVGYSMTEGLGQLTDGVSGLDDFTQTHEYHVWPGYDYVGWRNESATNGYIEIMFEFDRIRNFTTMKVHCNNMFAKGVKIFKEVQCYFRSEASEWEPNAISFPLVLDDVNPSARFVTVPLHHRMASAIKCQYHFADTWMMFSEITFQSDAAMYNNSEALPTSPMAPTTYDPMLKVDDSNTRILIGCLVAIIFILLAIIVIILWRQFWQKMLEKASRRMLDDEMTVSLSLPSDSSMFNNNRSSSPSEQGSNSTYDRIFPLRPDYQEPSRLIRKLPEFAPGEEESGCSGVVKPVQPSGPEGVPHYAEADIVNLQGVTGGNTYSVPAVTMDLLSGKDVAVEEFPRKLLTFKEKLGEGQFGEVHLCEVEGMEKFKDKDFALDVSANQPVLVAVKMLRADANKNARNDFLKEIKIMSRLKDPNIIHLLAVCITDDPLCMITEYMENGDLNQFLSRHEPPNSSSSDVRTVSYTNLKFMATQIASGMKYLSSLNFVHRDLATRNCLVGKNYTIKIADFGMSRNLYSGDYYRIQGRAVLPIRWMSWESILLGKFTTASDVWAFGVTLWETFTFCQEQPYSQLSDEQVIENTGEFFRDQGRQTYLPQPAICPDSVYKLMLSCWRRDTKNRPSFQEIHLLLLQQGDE
Procedure: as §1

T1 sequence (Q08345 19-913): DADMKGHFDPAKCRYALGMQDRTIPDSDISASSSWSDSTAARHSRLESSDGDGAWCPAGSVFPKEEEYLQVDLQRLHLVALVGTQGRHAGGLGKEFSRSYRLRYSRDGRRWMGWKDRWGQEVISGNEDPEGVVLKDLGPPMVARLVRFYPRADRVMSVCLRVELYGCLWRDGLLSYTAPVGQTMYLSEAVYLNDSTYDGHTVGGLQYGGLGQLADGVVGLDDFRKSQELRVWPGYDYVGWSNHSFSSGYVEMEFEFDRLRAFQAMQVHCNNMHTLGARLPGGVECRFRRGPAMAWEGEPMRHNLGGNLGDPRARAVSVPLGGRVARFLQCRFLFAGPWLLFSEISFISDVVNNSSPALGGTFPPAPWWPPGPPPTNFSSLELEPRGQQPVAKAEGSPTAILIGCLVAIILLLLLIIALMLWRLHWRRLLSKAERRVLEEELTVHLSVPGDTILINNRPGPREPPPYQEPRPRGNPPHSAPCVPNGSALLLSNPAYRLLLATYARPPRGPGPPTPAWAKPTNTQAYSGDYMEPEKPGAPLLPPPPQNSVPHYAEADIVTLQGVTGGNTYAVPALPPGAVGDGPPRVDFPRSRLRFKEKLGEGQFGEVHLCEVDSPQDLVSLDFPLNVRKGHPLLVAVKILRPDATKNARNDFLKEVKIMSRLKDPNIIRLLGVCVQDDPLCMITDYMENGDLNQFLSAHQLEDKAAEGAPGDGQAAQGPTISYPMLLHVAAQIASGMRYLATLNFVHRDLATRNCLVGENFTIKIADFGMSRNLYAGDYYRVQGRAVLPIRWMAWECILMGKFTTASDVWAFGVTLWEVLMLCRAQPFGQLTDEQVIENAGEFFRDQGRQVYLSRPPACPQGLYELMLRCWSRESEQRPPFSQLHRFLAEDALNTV

SMILES: Cc1ccc(OC(F)(F)F)cc1NC(=O)N(C)C1CC2(C1)CN(C(=O)c1ccnc3[nH]ncc13)C2 [Example 188, 1-(2-(1H-pyrazolo[3,4-b]pyridine-4-carbonyl)-2-azaspiro[3.3]heptan-6-yl)-1-methyl-3-(2-methyl-5-(trifluoromethoxy)phenyl)urea]
- Ki (DDR1): < 5 nM
- Ki (DDR2): 5 to 25 nM

SMILES: Cn1ccn2ncc(C(=O)N3CC4(CC(OC(=O)Nc5cc(C(C)(C)C(F)(F)F)on5)C4)C3)c12 [Example 271, 2-(1-methyl-1H-imidazo[1,2-b]pyrazole-7-carbonyl)-2-azaspiro[3.3]heptan-6-yl(5-(1,1,1-trifluoro-2-methylpropan-2-yl)isoxazol-3-yl)carbamate]
- Ki (DDR1): < 5 nM
- Ki (DDR2): < 5 nM

SMILES: O=C(Nc1cccc(C(F)(F)F)c1)NC1CC2(C1)CN(C(=O)c1cnn3c1SCCC3)C2 [Example 136, 1-(2-(6,7-dihydro-5H-pyrazolo[5,1-b][1,3]thiazine-3-carbonyl)-2-azaspiro[3.3]heptan-6-yl)-3-(3-(trifluoromethyl)phenyl)urea]
- Ki (DDR1): < 5 nM
- Ki (DDR2): 5 to 25 nM

SMILES: COc1ccc(C(F)(F)F)cc1NC(=O)NC1CC2(C1)CN(C(=O)c1cnn3ccn(C)c13)C2 [Example 65, 1-(2-methoxy-5-(trifluoromethyl)phenyl)-3-(2-(1-methyl-1H-imidazo[1,2-b]pyrazole-7-carbonyl)-2-azaspiro[3.3]heptan-6-yl)urea]
- Ki (DDR1): < 5 nM
- Ki (DDR2): 5 to 25 nM

SMILES: COCCn1ccn2ncc(C(=O)N3CC4(CC(N(C)C(=O)Nc5cc(OC(F)(F)F)ccn5)C4)C3)c12 [Example 202, 1-(2-(1-(2-methoxyethyl)-1H-imidazo[1,2-b]pyrazole-7-carbonyl)-2-azaspiro[3.3]heptan-6-yl)-1-methyl-3-(4-(trifluoromethoxy)pyridin-2-yl)urea]
- Ki (DDR1): < 5 nM
- Ki (DDR2): 25 to 100 nM

SMILES: CN(C(=O)Nc1cc(C#N)cc(OC(F)(F)F)c1)C1CC2(C1)CN(C(=O)c1cnn3ccn(C)c13)C2 [Example 111, 3-(3-cyano-5-(trifluoromethoxy)phenyl)-1-methyl-1-(2-(1-methyl-1H-imidazo[1,2-b]pyrazole-7-carbonyl)-2-azaspiro[3.3]heptan-6-yl)urea]
- Ki (DDR1): < 5 nM
- Ki (DDR2): < 5 nM

SMILES: CCc1ccc(C(F)(F)F)cc1NC(=O)N(C)C1CC2(C1)CN(C(=O)c1cnn3ccn(C)c13)C2 [Example 264, 3-(2-ethyl-5-(trifluoromethyl)phenyl)-1-methyl-1-(2-(1-methyl-1H-imidazo[1,2-b]pyrazole-7-carbonyl)-2-azaspiro[3.3]heptan-6-yl)urea]
- Ki (DDR1): < 5 nM
- Ki (DDR2): 5 to 25 nM

SMILES: Cc1ccc(OC(F)(F)F)cc1NC(=O)N(C)C1CC2(C1)CN(C(=O)c1cnn3ccn(C)c13)C2 [Example 104, 1-methyl-1-(2-(1-methyl-1H-imidazo[1,2-b]pyrazole-7-carbonyl)-2-azaspiro[3.3]heptan-6-yl)-3-(2-methyl-5-(trifluoromethoxy)phenyl)urea]
- Ki (DDR1): < 5 nM
- Ki (DDR2): 5 to 25 nM

SMILES: COc1ccc(-c2ccc3c(C(=O)N4CC5(CC(N(C)C(=O)Nc6cncc(C(F)(F)F)c6)C5)C4)cnn3c2)cn1 [Example 253, 1-(2-(6-(6-methoxypyridin-3-yl)pyrazolo[1,5-a]pyridine-3-carbonyl)-2-azaspiro[3.3]heptan-6-yl)-1-methyl-3-(5-(trifluoromethyl)pyridin-3-yl)urea]
- Ki (DDR1): < 5 nM
- Ki (DDR2): 5 to 25 nM

SMILES: COc1ccc(OC(F)(F)F)cc1NC(=O)N(C)C1CC2(C1)CN(C(=O)c1cnn3ccc(N4CCN(C)CC4)cc13)C2 [Example 81, 3-(2-methoxy-5-(trifluoromethoxy)phenyl)-1-methyl-1-(2-(5-(4-methylpiperazin-1-yl)pyrazolo[1,5-a]pyridine-3-carbonyl)-2-azaspiro[3.3]heptan-6-yl)urea]
- Ki (DDR1): < 5 nM
- Ki (DDR2): 5 to 25 nM

SMILES: COCCc1cn2ncc(C(=O)N3CC4(CC(N(C)C(=O)Nc5cncc(C(F)(F)F)c5)C4)C3)c2n1C [Example 225, 1-(2-(2-(2-methoxyethyl)-1-methyl-1H-imidazo[1,2-b]pyrazole-7-carbonyl)-2-azaspiro[3.3]heptan-6-yl)-1-methyl-3-(5-(trifluoromethyl)pyridin-3-yl)urea]
- Ki (DDR1): < 5 nM
- Ki (DDR2): 25 to 100 nM

SMILES: O=C(Nc1cccc(C(F)(F)F)c1)NC1CC2(C1)CN(c1nccn3cncc13)C2 [Example 149, 1-(2-(imidazo[1,5-a]pyrazin-8-yl)-2-azaspiro[3.3]heptan-6-yl)-3-(3-(trifluoromethyl)phenyl)urea]
- Ki (DDR1): < 5 nM
- Ki (DDR2): < 5 nM

SMILES: CN(C(=O)Nc1cc(C(F)(F)F)ccc1Cl)C1CC2(C1)CN(C(=O)c1ncnc3[nH]ccc13)C2 [Example 285, 1-(2-(7H-pyrrolo[2,3-d]pyrimidine-4-carbonyl)-2-azaspiro[3.3]heptan-6-yl)-3-(2-chloro-5-(trifluoromethyl)phenyl)-1-methylurea]
- Ki (DDR1): < 5 nM
- Ki (DDR2): < 5 nM

SMILES: CN(C(=O)Nc1cncc(C(F)(F)F)c1)C1CC2(C1)CN(C(=O)c1cnn3cc(-c4cnn(C)c4)ccc13)C2 [Example 231, 1-methyl-1-(2-(6-(1-methyl-1H-pyrazol-4-yl)pyrazolo[1,5-a]pyridine-3-carbonyl)-2-azaspiro[3.3]heptan-6-yl)-3-(5-(trifluoromethyl)pyridin-3-yl)urea]
- Ki (DDR1): < 5 nM
- Ki (DDR2): 5 to 25 nM

SMILES: O=C(Nc1cccc(C(F)(F)F)c1)NC1CC2(C1)CN(C(=O)c1cnn3cc(CNC4COC4)ccc13)C2 [Example 116, 1-(2-(6-((oxetan-3-ylamino)methyl)pyrazolo[1,5-a]pyridine-3-carbonyl)-2-azaspiro[3.3]heptan-6-yl)-3-(3-(trifluoromethyl)phenyl)urea]
- Ki (DDR1): < 5 nM
- Ki (DDR2): 5 to 25 nM

SMILES: O=C(CC1CC2(C1)CN(C(=O)c1cnn3ccsc13)C2)Nc1cncc(OC(F)(F)F)c1 [Example 275, 2-(2-(pyrazolo[5,1-b]thiazole-7-carbonyl)-2-azaspiro[3.3]heptan-6-yl)-N-(5-(trifluoromethoxy)pyridin-3-yl)acetamide]
- Ki (DDR1): < 5 nM
- Ki (DDR2): < 5 nM

SMILES: Cc1ccc(-n2nc(C(C)(C)C)cc2NC(=O)NC2CC3(C2)CN(C(=O)c2ncnc4ccsc24)C3)cc1 [Example 82, 1-(3-(tert-butyl)-1-(p-tolyl)-1H-pyrazol-5-yl)-3-(2-(thieno[3,2-d]pyrimidine-4-carbonyl)-2-azaspiro[3.3]heptan-6-yl)urea]
- Ki (DDR1): < 5 nM
- Ki (DDR2): 5 to 25 nM

SMILES: O=C(Nc1cccc(C(F)(F)F)c1)NC1CC2(C1)CN(C(=O)c1cnc3[nH]ccc3c1)C2 [Example 3, 1-(2-(1H-pyrrolo[2,3-b]pyridine-5-carbonyl)-2-azaspiro[3.3]heptan-6-yl)-3-(3-(trifluoromethyl)phenyl)urea]
- Ki (DDR1): 25 to 100 nM
- Ki (DDR2): 25 to 100 nM

SMILES: CN(C(=O)Nc1cc(C(C)(C)C(F)(F)F)on1)C1CC2(C1)CN(C(=O)c1cnn3ccn(C)c13)C2 [Example 199, 1-methyl-1-(2-(1-methyl-1H-imidazo[1,2-b]pyrazole-7-carbonyl)-2-azaspiro[3.3]heptan-6-yl)-3-(5-(1,1,1-trifluoro-2-methylpropan-2-yl)isoxazol-3-yl)urea]
- Ki (DDR1): < 5 nM
- Ki (DDR2): 5 to 25 nM

SMILES: CCn1ccn2ncc(C(=O)N3CC4(CC(NC(=O)Nc5cccc(C(F)(F)F)c5)C4)C3)c12 [Example 70, 1-(2-(1-ethyl-1H-imidazo[1,2-b]pyrazole-7-carbonyl)-2-azaspiro[3.3]heptan-6-yl)-3-(3-(trifluoromethyl)phenyl)urea]
- Ki (DDR1): < 5 nM
- Ki (DDR2): < 5 nM

SMILES: Cn1ccn2ncc(C(=O)N3CC4(CC(NC(=O)Nc5cc(F)cc(OC(F)(F)F)c5)C4)C3)c12 [Example 124, 1-(3-fluoro-5-(trifluoromethoxy)phenyl)-3-(2-(1-methyl-1H-imidazo[1,2-b]pyrazole-7-carbonyl)-2-azaspiro[3.3]heptan-6-yl)urea]
- Ki (DDR1): < 5 nM
- Ki (DDR2): < 5 nM

SMILES: CN(C(=O)Nc1cc(OC(F)(F)F)ccn1)C1CC2(C1)CN(C(=O)c1cnn3ccsc13)C2 [Example 114, 1-methyl-1-(2-(pyrazolo[5,1-b]thiazole-7-carbonyl)-2-azaspiro[3.3]heptan-6-yl)-3-(4-(trifluoromethoxy)pyridin-2-yl)urea]
- Ki (DDR1): < 5 nM
- Ki (DDR2): 5 to 25 nM

SMILES: CN1CCN(c2ccc3ncc(C(=O)N4CC5(CC(NC(=O)Nc6cccc(C(F)(F)F)c6)C5)C4)n3c2)CC1 [Example 5, 1-(2-(6-(4-methylpiperazin-1-yl)imidazo[1,2-a]pyridine-3-carbonyl)-2-azaspiro[3.3]heptan-6-yl)-3-(3-(trifluoromethyl)phenyl)urea]
- Ki (DDR1): < 5 nM
- Ki (DDR2): 5 to 25 nM
